{"source": "patent US9631170B2", "about": "“Genetically inducible hydrogen peroxide resistance and production” (University of Wyoming, priority 2011, dated 2017)", "key": {"[1]": {"tested_on": "plant chloroplasts", "details": "H2O2 concentrations as low as 10 μM; cited from earlier work"}, "[2]": {"tested_on": "Synechococcus elongatus PCC 7942", "details": "non-linear regression of dose response data, FIG. 11; wild type vs insertional katG null mutant", "protocol": "These experiments generate dose response curves for growth versus H2O2-based algaecide concentration. […] EC50 for growth rate is determined from non-linear regression curves fitted to growth rate data from 5-7 experimental replicates at 5 to 7 stress doses. To fit curves, non-linear regressions are applied to the dose response data and the fit of the regression curve to the log-logistic equation will be F-tested.\nOne of these strains was a wild type (WT) and one was an insertional null mutant for the major cyanobacterial catalase encoded by the katG gene."}}, "data": [{"smiles": "OO", "note": "[H2O2, hydrogen peroxide]", "values": [{"measurement": "decrease of photosynthetic carbon fixation", "setting": "[1]", "result": 50, "unit": "%"}, {"measurement": "resistance to exogenous H2O2 of wild type relative to katG null mutant lacking catalase activity", "setting": "[2]", "result": "~2", "unit": "fold"}]}]}
